Values quoted from earlier work in patent US20120134921A1, “SOLID COMPOSITIONS COMPRISING 5-AMINOLEVULINIC ACID” (Photocure ASA, priority 2009, published 2012).

Tests used:
[1] = system: dysplastic lesions; settings: sterile solution administered as local probe, chronic colitis rat models
[2] = system: pre-malignant conditions in the colon; settings: enemas, 5-ALA hexyl ester in sterile phosphate buffered saline

In the case of `CCCCCCOC(=O)CCC(=O)CN` [5-ALA hexyl ester, n-hexyl aminolevulinic acid ester], the “Sensitivity of detection of dysplastic lesions by fluorescence” value [1] is given as 60%, the “Specificity of detection of dysplastic lesions by fluorescence” value [1] is given as 51% and the “More polyps detected by PDD than with white light endoscopic imaging” value [2] is given as 28%.
